# “And” between values parts separate entries of the source, which are not always exact repeats. Equal entries are not always repeated.
# Legend:
# Format in all cases: cell-based, Staphylococcus aureus
# strain CRBΔpbp4 = assay: microbe, parasite or virus in culture; conditions: CRBΔpbp4
# MRSA strain AH-1263 = assay: Broth microdilution antibiotic potentiation; conditions: AH-1263
# Outline: (§1)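 MRSA grown 6 h in CAMHB, subcultured to 5×10^5 CFU/mL, then adjuvant compound added from DMSO stock. Antibiotic serially 2-fold diluted across plate in adjuvant-containing culture, antibiotic-alone as control; plates incubated at 37° C.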
# MRSA strain AH-2204 = assay: Broth microdilution antibiotic potentiation; conditions: AH-2204
# Outline: as §1
# [1] = test system: MRSA strain ATCC BAA-1556; assay: Broth microdilution antibiotic potentiation; conditions: ATCC BAA-1556
# Outline: as §1
# MRSA strain BAA-1770 = assay: Broth microdilution antibiotic potentiation; conditions: Ex. 3 compound at 60 μM
# Experimental: Broth Microdilution Method for Antibiotic Potentiation with MRSA Strains. Bacteria were cultured for 6 hours in CAMHB and sub-cultured to 5×10^5 CFU/mL in CAMHB. Subcultures were aliquoted (4 mL) into culture tubes and then inoculated with compound from 10 mM or 100 mM stock in DMSO to the desired concentration. […] Bacteria treated with antibiotic alone served as the control. Samples from the secondary culture tubes were then aliquoted (200 μL) into the first row of wells of a 96-well microtiter plate. Rows 2-11 were filled (100 μL) with the remaining 4 mL of bacterial subculture containing the adjuvant. Row 12 was filled (100 μL) with uninoculated media. From row 1, 100 μL was transferred to row two and mixed 5-8 times before being transferred to row 3. This procedure was used to serial dilute the rest of the rows through 10. The microtiter plate was then covered in Press 'n Seal and incubated at 37° C.
# [2] = Ex. 3 compound at 60 μM (18 and 19 at 30 μM)
smiles,measurement,setting,value
O=C(Nc1ccc2[nH]c(-c3cccs3)nc2c1)c1ccco1 [Compound 1 (7729837)],"Cmpd (putative PBP4 inhibitor) MIC, Alone",strain CRBΔpbp4,400 µM
same,Fold-decrease in ceftobiprole resistance in combination,strain CRBΔpbp4,0
same,"Cmpd concentration, Combination",strain CRBΔpbp4; with ceftobiprole,50 µM
same,"BPR (ceftobiprole) MIC, Combination",strain CRBΔpbp4; with putative PBP4 inhibitor,0.25 mg/L
same,Ampicillin MIC,MRSA strain AH-1263; [2],8 mg/L
same,Ampicillin MIC fold reduction,MRSA strain AH-1263; [2],(2)
same,Cefotaxime MIC,MRSA strain AH-1263; [2],8 mg/L
same,Cefotaxime MIC fold reduction,MRSA strain AH-1263; [2],(4)
same,Oxacillin MIC,MRSA strain AH-1263; [2],1 mg/L
same,Amoxicillin MIC,MRSA strain AH-1263; with Ex. 3 compound,8 mg/L
same,Cephalothin MIC,MRSA strain AH-1263; with Ex. 3 compound,1 mg/L
same,Cephalothin MIC fold reduction,MRSA strain AH-1263; with Ex. 3 compound,32
same,Penicillin G MIC,MRSA strain AH-1263; with Ex. 3 compound,4 mg/L
same,Penicillin G MIC fold reduction,MRSA strain AH-1263; with Ex. 3 compound,2
same,Piperacillin MIC,MRSA strain AH-1263; with Ex. 3 compound,8 mg/L
same,Piperacillin MIC fold reduction,MRSA strain AH-1263; with Ex. 3 compound,2
same,Ampicillin MIC,MRSA strain AH-2204; [2],2 mg/L
same,Cefotaxime MIC,MRSA strain AH-2204; [2],8 mg/L
same,Cefotaxime MIC fold reduction,MRSA strain AH-2204; [2],(2)
same,Oxacillin MIC,MRSA strain AH-2204; [2],0.5 mg/L and 0.6 mg/L
same,Amoxicillin MIC,MRSA strain AH-2204; with Ex. 3 compound,2 mg/L
same,Cephalothin MIC,MRSA strain AH-2204; with Ex. 3 compound,0.125 mg/L
same,Cephalothin MIC fold reduction,MRSA strain AH-2204; with Ex. 3 compound,32
same,Penicillin G MIC,MRSA strain AH-2204; with Ex. 3 compound,1 mg/L
same,Piperacillin MIC,MRSA strain AH-2204; with Ex. 3 compound,4 mg/L
same,Ampicillin MIC,[1]; [2],8 mg/L
same,Ampicillin MIC fold reduction,[1]; [2],(2)
same,Cefotaxime MIC,[1]; [2],16 mg/L
same,Cefotaxime MIC fold reduction,[1]; [2],(2)
same,Oxacillin MIC,[1]; [2],2 mg/L
same,Amoxicillin MIC,[1]; with Ex. 3 compound,8 mg/L
same,Cephalothin MIC,[1]; with Ex. 3 compound,1 mg/L
same,Cephalothin MIC fold reduction,[1]; with Ex. 3 compound,16
same,Penicillin G MIC,[1]; with Ex. 3 compound,2 mg/L
same,Piperacillin MIC,[1]; with Ex. 3 compound,8 mg/L
same,Piperacillin MIC fold reduction,[1]; with Ex. 3 compound,2
same,Oxacillin MIC fold reduction,MRSA strain BAA-1770,32

# — US20260124213A1, “STAPHYLOCOCCUS AUREUS PBP4 INHIBITORS AND METHOD OF USE” (UNIVERSITY OF ROCHESTER, priority 2022, published 2026)
